Laboratory results: patent publication US6833383B2, “Methods for treating patients suffering from drug dependencies which lead to plasma melatonin deficiencies” (Neurim Pharmaceuticals (1991) Ltd., priority 1995, dated 2004)

Key:
[1] = test system: Benzodiazepine receptors; assay: 3H-flunitrazepam and 3H-RO 15-1788 binding to crude synaptosomal pellets of brains of rats treated for 21 days; assay type: in vivo, rat
Method: (§1) 20 male rats, maintained on a daily 14 hour light/10 hour darkness schedule, were divided into 4 groups, each consisting of 5 members:
(§2) Group 1 (the control group): rats were injected daily with 200 μl saline intraperitoneally for 21 days and were allowed to drink tap water.
(§3) They also were provided with regular tap water.
(§4) Group 3 (the melatonin group): rats were injected daily with 200 μl saline intraperitoneally. Their only available drinking water contained 0.4% by weight melatonin.
(§5) Each group was allowed food and water ad libitum. After 21 days the treatment was stopped. The animals were decapitated between 6:00 and 7:00 p.m. the next day, their brains were rapidly removed and crude synaptosomal pellets were prepared, and melatonin receptors were assessed using 2-^125I-melatonin, as described by Laudon, M., and N. Zisapel, FEBS Lett. 197:9 (1986). Benzodiazepine receptors were assessed by measuring the binding of radioactive benzodiazepine receptor probes ^3H-flunitrazepam (^3H-FNZ) and ^3H-RO 15-1788 as described by Amiri, Z. et al. Brain Res. 553:155 (1991). Binding parameters were calculated from the equilibrium binding data. […] Binding parameters of the various groups were compared by analysis of variance followed by Student-Newman-Keul's test for multiple comparison. Differences were considered significant if P<0.05.

[2] = test system: melatonin receptors; assay: 2-125I-melatonin binding to crude synaptosomal pellets of brains of rats treated for 21 days; assay type: in vivo, rat; details: 21 days treatment
Method: as §1, §2, §3, §4, §5

[3] = urinary 6-sulfatoxymelatonin in benzodiazepine-dependent patient after melatonin therapy; assay type: in vivo, human; details: for Urinary 6-sulfatoxymelatonin after treatment: 2 weeks after stopping 1 mg controlled release melatonin daily
Method: (§6) The quality of sleep was assessed by an actigraph tracing which automatically monitors the bedtime sleep-wake pattern through a small device attached to the hand. […] Urine was collected every three hours for 36 hours and assayed for the diurnal secretion of […] melatonin.
(§7) Oral administration of a controlled release melatonin formulation in the form of tablets containing 1 mg melatonin (Neurim Pharmaceuticals, Israel) (made in accordance with the procedures set forth in example 1 for tablet SR-A) was initiated in order to correct for the deficiency and distortion of the melatonin rhythm. One tablet was administered daily at 8:30 p.m. The patient was asked to gradually reduce the number of benzodiazepine tablets taken each night.
(§8) The treatment was stopped and 2 weeks afterwards the patient's urine was collected again every three hours over a 36 hour period and assayed for 6-sulfatoxymelatonin. […] A three month follow-up confirmed that the patient maintained their quality of sleep and hardly suffered from headaches. After 6 months without treatment the patient's sleep quality began to deteriorate and melatonin therapy was resumed. The therapy restored their sleep quality and the patient continues to take 3 mg melatonin daily.

[4] = case study: withdrawal from benzodiazepine tolerance and sleep in a patient; assay type: in vivo, human
Excerpt: This example illustrates the action of melatonin in facilitating rapid withdrawal from benzodiazepine tolerance. A person, married with two children, had been suffering from sleep onset insomnia for 10 years, accompanied by frequent and severe migraine attacks. A thorough neurological assessment was negative. Psychiatric or other organic problems also were ruled out.
The patient had been treated with benzodiazepines, tricyclic antidepressants and neuroleptic drugs, as well as biofeedback and relaxation methods with no apparent relief throughout the 10 year period. For the last year, they had been taking 4-8 mg Lorazepam every night, taking a 0.5 mg tablet every half hour or hour throughout the night. This led to difficulties when the patient arose in the morning; they would feel heavily sedated and had problems functioning at work, especially when under pressure. They began to feel that they were losing their memory and ability to concentrate.
as §6, §7, §8

[5] = long term melatonin in two insomnia patients dependent upon flunitrazepam; assay type: in vivo, human
Method: Two volunteers, […], a person, and […], a person, had each suffered for a number of years from insomnia and/or frequent awakenings during the night accompanied by difficulty in falling asleep again. […] Both patients had been taking 1-2 mg of flunitrazepam orally prior to retiring each evening.
Each patient was weaned off of the flunitrazepam via gradual reduction and simultaneous administration of melatonin over a two month period. During this time, each patient received 2 mg melatonin in controlled release form daily. Since the end of that two month period, each patient has been taking 2 mg oral controlled release melatonin for almost two years.
[…] Each patient also reported reduced fatigue during the daytime within several days after the beginning of the weaning period.

[6] = cerebral cortex, 21 days treatment
[7] = 1 mg controlled release melatonin tablet daily
[8] = 2 mg controlled release melatonin daily, patients

Compound: CN1C(=O)CN=C(c2ccccc2)c2cc(Cl)ccc21 [diazepam]
- effect on RO 15-1788 and flunitrazepam binding sites [1, 6]: did not significantly affect
- effect on the melatonin-mediated decrease in specific binding ([1]; cerebral cortex, diazepam given together with melatonin): prevented

Compound: COc1ccc2[nH]cc(CCNC(C)=O)c2c1 [melatonin]
- binding of melatonin compared with the control group [2]: no difference
- reduction in specific binding of tritiated RO 15-1788 compared with the control group [1, 6]: 20%
- reduction in specific binding of tritiated flunitrazepam compared with the control group [1, 6]: 20%
- maximal binding (Bmax) of the RO-15-1788 binding sites ([1]; medulla-pons, 21 days treatment): significantly increased
- urinary 6-sulfatoxymelatonin, change after therapy ([3]; 2 weeks after treatment was stopped, urine every three hours over 36 hours): increase in amount and a clear nocturnal peak
- Urinary 6-sulfatoxymelatonin after treatment ([3]; time 3.00): 0.74 µg/h
- Urinary 6-sulfatoxymelatonin after treatment ([3]; time 6.00): 0.36 µg/h
- Urinary 6-sulfatoxymelatonin after treatment ([3]; time 9.00): 0.21 µg/h
- Urinary 6-sulfatoxymelatonin after treatment ([3]; time 12.00): 0.01 µg/h
- Urinary 6-sulfatoxymelatonin after treatment ([3]; time 15.00 (first)): 0.11 µg/h
- Urinary 6-sulfatoxymelatonin after treatment ([3]; time 15.00 (second)): 0.04 µg/h
- Urinary 6-sulfatoxymelatonin after treatment ([3]; time 18.00): 0.45 µg/h
- Urinary 6-sulfatoxymelatonin after treatment ([3]; time 21.00): 0.11 µg/h
- Urinary 6-sulfatoxymelatonin after treatment ([3]; time 24.00): 1.24 µg/h
- headaches (patient's report) [4, 7]: subsided gradually
- insomnia (patient's claim) [4, 7]: improved remarkably
- time until the patient stopped using the benzodiazepine hypnotics altogether ([4]; 1 mg controlled release melatonin tablet daily at 8:30 p.m., patient on 4-8 mg Lorazepam nightly): ≤ 2 days
- sleep pattern, repeated actigraph tracing ([4]; after 3 weeks of melatonin treatment): marked improvement
- sleep quality after melatonin therapy was resumed ([4]; resumed after 6 months without treatment): restored
- sleep inducement (subjective report) [5, 8]: good
- sleep quality (subjective report) [5, 8]: substantial improvement
- residual tiredness in the morning or hangover feeling ([5]; 2 mg oral controlled release melatonin): has not caused any
- side effects reported ([5]; 2 mg oral controlled release melatonin for almost two years): No side effects
- fatigue during the daytime ([5]; within several days after the beginning of the weaning period): reduced
